Earlier results as cited in patent publication US20100255105A1, “EXTENDED RELEASE PHARMACEUTICAL COMPOSITION COMPRISING METOPROLOL SUCCINATE” (ZAKLADY FARMACEUTYCZNE POLPHARMA S.A., priority 2009, published 2010).

Settings: water at 37° C.

solubility in water: 276 mg/mL
SMILES: COCCc1ccc(OCC(O)CNC(C)C)cc1 (stereo not shown) [metoprolol succinate]
